Structures can show the parent of a compound that is named as a salt.
Key:
[1] = tested on: Vibrio percolans ATCC 8461; assay: 890 Assay Units, agar plate disc-diffusion, cephaloridine standard; format: cell-based
Experimental: II. Assay Procedure for Determining "890 Assay Units"
A conventional agar plate disc-diffusion method is employed using Vibrio percolans ATCC 8461 as tester organism. Cephaloridine is employed as a standard. Plates containing Vibrio percolans ATCC 8461 are prepared as follows. A culture of Vibrio percolans ATCC 8461 is incubated in nutrient broth-yeast extract overnight on a rotary shaker at 28° C. and then diluted to a density of 60% transmittance at 660 nm. A 33.2 ml. portion of this diluted culture is added to 1 liter of a medium composed of nutrient agar plus 0.2% yeast extract maintained at 46° C. The inoculated agar-containing medium is poured into 100×15 mn. plastic-petri dishes, 10 ml. per dish, chilled, and maintained at 2°-4° C. for up to 5 days before use.
The concentration of cephaloridine which is equivalent to 1 unit/ml. of 890A1 is determined by assay on plates prepared as above, but containing 5 ml. of inoculated medium per plate, as follows. Four concentrations of cephaloridine constitute the standard--3.12, 6.25, 12.5 and 25 mcg per ml. with the 12.5 mcg per ml. as a reference solution. The zone diameters on a 5 ml. plate for the standard are as follows:
A unit is defined as the amount of antibiotic per ml. producing a 25 mm. zone of inhibition on a 5 ml. plate as described in section I above. Therefore, in this assay a concentration of 12.5 mcg per ml. of cephaloridine is considered equivalent to 1 unit of 890A1 per ml. Since the slope of the line for cephaloridine is 4.0 calculations of the potency of a sample are made using a slope of 4.0

[2] = Hydroxylamine reaction (A300 decrease); format: physicochemical
Text: The disodium salt of antibiotic 890A10 has an absorption maximum at 299 nm and a minimum at 243 nm at neutral pH in water. The E% at 300 nm of the most highly purified preparation of disodium salt is 214. The ratio A300 /A250 is 3.33 for the most purified sample, and the ratio A300 /A220 is 2.05. […] More than 94% of the absorption at 300 nm can be extinguished by reaction with hydroxylamine at neutral pH. The absorbance at 250 nm also decreases upon reaction with hydroxylamine, and the ratio of the absorbance decrease at 250 nm to the decrease at 300 nm, is approximately 0.16. […]
Antibiotic 890A10 reacts with hydroxylamine and produces a substance with greatly diminished absorbance at 300 nm. This provides the basis for a quantitative assay of the antibiotic 890A10.
The solution to be assayed is brought to 0.05 M in potassium phosphate, pH 7.4 by adding 1/20th volume of a solution containing 0.8 M K2 HPO4 and 0.2 M KH2 PO4 . Then one-hundredth volume of 1 M hydroxylamine hydrochloride is added, and the absorbance at 300 nm is measured at intervals of one-half to two minutes. […] First-order kinetics are assumed and a half-life is estimated from the absorbance decrease during the first ten minutes. From this half-life, the time is estimated beyond which no further absorbance decrease should be observed and observations are continued beyond that time. […]

| Compound | concentration equivalent to 1 unit of 890A1 per ml ([1]; 25 mm zone of inhibition on a 5 ml plate) [mcg per ml] | zone of inhibition at 3.12 µg/mL ([1]; Comamonas terrigena, ATCC8461, 3.12 mcg/ml, 5 ml plate, read-out: Zone Diameter) [mm] | zone of inhibition at 6.25 µg/mL ([1]; Comamonas terrigena, ATCC8461, 6.25 mcg/ml, 5 ml plate, read-out: Zone Diameter) [mm] | zone of inhibition at 12.5 µg/mL ([1]; Comamonas terrigena, ATCC8461, 12.5 mcg/ml (reference solution), 5 ml plate, read-out: Zone Diameter) [mm] | zone of inhibition at 25 µg/mL ([1]; Comamonas terrigena, ATCC8461, 25 mcg/ml, 5 ml plate, read-out: Zone Diameter) [mm] | absorption at 300 nm extinguished by reaction with hydroxylamine ([2]; neutral pH) | half-life of reaction with hydroxylamine ([2]; room temperature, apparently first order, A300 decrease, pH 7.4) [s] |
| --- | --- | --- | --- | --- | --- | --- | --- |
| O=C(Cc1cccs1)N[C@@H]1C(=O)N2C(C(=O)[O-])=C(C[n+]3ccccc3)CS[C@H]12 [cephaloridine] | 12.5 | 16.8 | 22.3 | 25 | 29.6 | – | – |
| CC(=O)NCCSC1=C(C(=O)O)N2C(=O)C(C(C)OS(=O)(=O)O)C2C1 (stereo not shown) [disodium salt of antibiotic 890A10] | – | – | – | – | – | More than 94% | 23 to 60 |
